For test [1], the system named is mouse olfactory sensory neurons. Kind of test: Confocal calcium imaging of olfactory sensory neurons in tissue slices. Format: cell-based. The protocol: The mammalian olfactory system encodes odor identity using combinations of olfactory receptors (11). […] Here, we used a confocal imaging strategy to record cytosolic calcium transients of single sensory neurons in real time. Viability of analyzed neurons was determined after odor exposures by KCl-induced depolarization.
Confocal calcium imaging of olfactory sensory neurons in tissue slices. Recordings were performed as described (Spehr M, et al. (2006) Essential role of the main olfactory system in social recognition of major histocompatibility complex peptide ligands. J Neurosci 26(7):1961-1970) with the following modifications. For calcium sensitive dye loading, slices of olfactory epithelium were incubated (30 min, 4° C.) in HEPES solution (in mM: 145 NaCl, 5 KCl, 1 CaCl2, 1 MgCl2, 10 HEPES; pH=7.3) containing Fluo-4/AM (2 μM; Molecular Probes). Slices were transferred to a recording chamber (Slice Mini Chamber, Luigs & Neumann, Ratingen, Germany) and visualized using a Leica DM6000CFS confocal fixed stage upright microscope (Leica Microsystems, Mannheim, Germany) equipped with an apochromatic water immersion objective (HC X APO L20x/1.0 W) and infrared-optimized differential interference contrast (DIC) optics. Slices were anchored via stainless steel wires with 0.1 mm lycra threads and continuously superfused with HEPES-buffered solution. Changes in cytosolic calcium were monitored over time at 1.0 Hz frame rate. Stimulus application as well as solution exchange during inter-stimulus intervals was achieved by a custom-made, pressure-driven focal application device consisting of a software-controlled valve bank connected to a 7-in-1 ‘perfusion pencil’. Rhodamine application controlled for uniform flow and even stimulus application throughout the epithelial sensory surface. Offline analysis of time-lapse experiments was performed using LAS-AF software (Leica). All cells in a given field of view were marked as individual regions of interest (ROIs), and the relative fluorescence intensity for each ROI was calculated and processed as a function of time.

The target in test [2] is T1, rTAAR7d (Rattus norvegicus, UniProt Q923X5).
T1 sequence (Q923X5 1-358): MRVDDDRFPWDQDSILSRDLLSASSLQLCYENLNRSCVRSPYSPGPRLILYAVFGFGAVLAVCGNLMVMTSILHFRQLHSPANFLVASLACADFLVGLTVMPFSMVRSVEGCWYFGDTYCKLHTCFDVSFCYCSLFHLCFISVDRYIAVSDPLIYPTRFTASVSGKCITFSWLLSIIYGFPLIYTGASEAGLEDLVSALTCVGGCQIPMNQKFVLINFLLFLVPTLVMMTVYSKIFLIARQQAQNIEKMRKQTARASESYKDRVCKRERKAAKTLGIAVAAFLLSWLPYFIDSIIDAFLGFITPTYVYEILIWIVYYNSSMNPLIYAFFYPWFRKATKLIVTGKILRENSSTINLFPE
Nature of the test: CRE-SEAP reporter gene assay in HEK293 cells transfected with rTAAR7d. Type of test: cell-based. Set-up: Full Taar coding regions were cloned into pcDNA3.1; expressed in transfected cells; host or cells: HEK293. The note with it: FIG. 11A, functional with or without 'Rho tag', EC50 ± s.e.m., 4-parameter Hill equation. The protocol:
FIG. 11 illustrates the dose-dependent responses of TAARs to amines. HEK293 cells were cotransfected with plasmids encoding CRE-SEAP and rTAARs (a) or mTAARs (b), incubated with concentrations of ligands indicated, and assayed for reporter activity (triplicates±s.d.). EC50 values (±s.e.m, bottom right) were calculated using SigmaPlot (Systat Software) and a 4-parameter Hill equation.
The following mixes (10 μM of each indicated compounds) were tested for their ability to activate rat TAARs. Mix 1: butylamine, dibutylamine, hexylamine. Mix 2: 2-aminopentane, isoamylamine, isobutylamine, isopropylamine. Mix 3: N,N-dimethylcyclohexylamine, 1-methylindole, tryptamine, phenylethylamine. Mix 4: indole, 1-methylpyrrolidine, 1-methylpiperidine, pyrrolidine. […]
Full Taar coding regions were cloned into pcDNA3.1-(Invitrogen) with or without a 5′ DNA extension of 69 bp encoding the first 20 amino acids of bovine rhodopsin followed by a cloning linker ([…]). […] Fluorescence was measured on an EnVision plate reader (Perkin Elmer) and SEAP activity graphed as relative fluorescence of a phosphatase substrate.
Here, we set out to identify agonists for additional mouse and rat TAARs. […] Transfected cells were incubated with test chemicals, and phosphatase activity was quantified with a fluorescent substrate as a reporter for TAAR activation. […]

As for `NCCc1ccccc1` [2-phenylethylamine], the “activation of olfactory sensory neurons” value in test [1] (dorsal and ventral olfactory epithelium) was “activated a subset of KCl-responsive olfactory sensory neurons”. The “2-phenylethylamine-responsive neurons activated by all four test stimuli” value in test [1] (dorsal olfactory epithelium) was 30/52. The “2-phenylethylamine-responsive neurons distinguishing lion and giraffe urine and not responding to benzylamine” value is listed as 25% in test [1] (of 2-phenylethylamine-responsive neurons (13/52)) and roughly 1% in test [1] (of all dorsal KCl-responsive neurons (13/1268)).
The term EC50 denotes the concentration at which the effect is half-maximal. Low values mean greater potency, high ones weaker potency. Consider `CN(C)C1CCCCC1` [N,N-DIMETHYLCYCLOHEXYLAMINE, N,N-dimethylcyclohexylamine], for which the 50% effective concentration (EC50) in test [2] is 4.6 ± 1.1 µM.

Source of the values: patent US20140221499A1, “NOVEL RODENT CONTROL AGENTS AND USES THEREOF” (priority 2011, published 2014).
